According to PubChem BioAssay (NCI):
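Briefly, cells in 96-well plates were exposed to five compound concentrations for 48 h, and endpoints were estimated by linear interpolation. At the TGI there is no net growth.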

Experiments:
Experiment in all cases: NCI tumour cell line growth inhibition, 48 h
RXF 393 renal = system: RXF 393 renal
MOLT-4 leukemia = system: MOLT-4 leukemia
OVCAR-5 ovarian = system: OVCAR-5 ovarian
OVCAR-4 ovarian = system: OVCAR-4 ovarian
UACC-62 melanoma = system: UACC-62 melanoma
SW-620 colon = system: SW-620 colon
A498 renal = system: A498 renal
OVCAR-8 ovarian = system: OVCAR-8 ovarian
RPMI-8226 leukemia = system: RPMI-8226 leukemia
KM12 colon = system: KM12 colon
HCT-116 colon = system: HCT-116 colon
SK-MEL-2 melanoma = system: SK-MEL-2 melanoma
SK-MEL-5 melanoma = system: SK-MEL-5 melanoma
MCF7 breast = system: MCF7 breast
CAKI-1 renal = system: CAKI-1 renal
SNB-19 CNS = system: SNB-19 CNS
HOP-92 NSCLC = system: HOP-92 NSCLC
SK-MEL-28 melanoma = system: SK-MEL-28 melanoma
T-47D breast = system: T-47D breast
SN12C renal = system: SN12C renal
CCRF-CEM leukemia = system: CCRF-CEM leukemia
SF-539 CNS = system: SF-539 CNS
NCI-H226 lung = system: NCI-H226 lung
BT-549 breast = system: BT-549 breast
A549 NSCLC = system: A549 NSCLC
K-562 leukemia = system: K-562 leukemia
ACHN renal = system: ACHN renal
MDA-MB-435 = system: MDA-MB-435
HT29 colon = system: HT29 colon
MALME-3M melanoma = system: MALME-3M melanoma
HS 578T breast = system: HS 578T breast
SR leukemia = system: SR leukemia
IGROV1 ovarian = system: IGROV1 ovarian
UO-31 renal = system: UO-31 renal
HCT-15 colon = system: HCT-15 colon
M14 melanoma = system: M14 melanoma
LOX IMVI melanoma = system: LOX IMVI melanoma
NCI-H522 lung = system: NCI-H522 lung
TK-10 renal = system: TK-10 renal
SF-268 CNS = system: SF-268 CNS
SF-295 CNS = system: SF-295 CNS
HOP-62 NSCLC = system: HOP-62 NSCLC
NCI-H23 lung = system: NCI-H23 lung
MDA-MB-231 breast = system: MDA-MB-231 breast
DU-145 prostate = system: DU-145 prostate
SNB-75 CNS = system: SNB-75 CNS
OVCAR-3 ovarian = system: OVCAR-3 ovarian
PC-3 prostate = system: PC-3 prostate
NCI-H460 lung = system: NCI-H460 lung
UACC-257 melanoma = system: UACC-257 melanoma
786-0 renal = system: 786-0 renal
MDA-N = system: MDA-N
NCI/ADR-RES ovarian = system: NCI/ADR-RES ovarian
U251 CNS = system: U251 CNS
SK-OV-3 ovarian = system: SK-OV-3 ovarian
HL-60(TB) leukemia = system: HL-60(TB) leukemia
COLO 205 colon = system: COLO 205 colon
EKVX NSCLC = system: EKVX NSCLC
HCC-2998 colon = system: HCC-2998 colon
HOP-18 NSCLC = system: HOP-18 NSCLC
DMS 273 small cell lung = system: DMS 273 small cell lung
DMS 114 small cell lung = system: DMS 114 small cell lung
KM20L2 colon = system: KM20L2 colon
LXFL 529 NSCLC = system: LXFL 529 NSCLC
SNB-78 CNS = system: SNB-78 CNS
M19-MEL melanoma = system: M19-MEL melanoma

c1csc(-c2ccc(-c3cccs3)c3nsnc23)c1
TGI (RXF 393 renal): > 64.7 µM
TGI (MOLT-4 leukemia): 30.3 µM
TGI (OVCAR-5 ovarian): > 100 µM
TGI (OVCAR-4 ovarian): > 100 µM
TGI (UACC-62 melanoma): > 100 µM
TGI (SW-620 colon): > 50 µM
TGI (A498 renal): > 100 µM
TGI (OVCAR-8 ovarian): > 93.2 µM
TGI (RPMI-8226 leukemia): > 82.4 µM
TGI (KM12 colon): 22.2 µM
TGI (HCT-116 colon): > 100 µM
TGI (SK-MEL-2 melanoma): > 100 µM
TGI (SK-MEL-5 melanoma): > 55.5 µM
TGI (MCF7 breast): > 100 µM
TGI (CAKI-1 renal): > 100 µM
TGI (SNB-19 CNS): > 100 µM
TGI (HOP-92 NSCLC): > 100 µM
TGI (SK-MEL-28 melanoma): > 54.2 µM
TGI (T-47D breast): 1.8 µM
TGI (SN12C renal): > 100 µM
TGI (CCRF-CEM leukemia): 31.5 µM
TGI (SF-539 CNS): > 51 µM
TGI (NCI-H226 lung): > 50.2 µM
TGI (BT-549 breast): > 100 µM
TGI (A549 NSCLC): > 100 µM
TGI (K-562 leukemia): 37.9 µM
TGI (ACHN renal): > 100 µM
TGI (MDA-MB-435): > 100 µM
TGI (HT29 colon): > 100 µM
TGI (MALME-3M melanoma): > 55.8 µM
TGI (HS 578T breast): 47.2 µM
TGI (SR leukemia): 39.9 µM
TGI (IGROV1 ovarian): > 88.4 µM
TGI (UO-31 renal): > 100 µM
TGI (HCT-15 colon): > 41.4 µM
TGI (M14 melanoma): > 100 µM
TGI (LOX IMVI melanoma): > 61.9 µM
TGI (NCI-H522 lung): > 100 µM
TGI (TK-10 renal): > 100 µM
TGI (SF-268 CNS): > 59.2 µM
TGI (SF-295 CNS): > 100 µM
TGI (HOP-62 NSCLC): > 95.7 µM
TGI (NCI-H23 lung): > 68.4 µM
TGI (MDA-MB-231 breast): > 31.6 µM
TGI (DU-145 prostate): > 70.6 µM
TGI (SNB-75 CNS): > 100 µM
TGI (OVCAR-3 ovarian): > 57.4 µM
TGI (PC-3 prostate): > 100 µM
TGI (NCI-H460 lung): > 100 µM
TGI (UACC-257 melanoma): > 100 µM
TGI (786-0 renal): > 54 µM
TGI (MDA-N): > 73.4 µM
TGI (NCI/ADR-RES ovarian): > 83.7 µM
TGI (U251 CNS): > 87.5 µM
TGI (SK-OV-3 ovarian): > 96.4 µM
TGI (HL-60(TB) leukemia): 27.1 µM
TGI (COLO 205 colon): 27.1 µM
TGI (EKVX NSCLC): > 100 µM
TGI (HCC-2998 colon): > 100 µM

CCOC(=O)NC(=O)c1cn(C(CC)COC(=O)NCCCCCCNC(=O)OCC(CC)n2cc(C(=O)NC(=O)OCC)c(=O)[nH]c2=O)c(=O)[nH]c1=O (stereo not drawn)
TGI (RXF 393 renal): > 100 µM
TGI (MOLT-4 leukemia): > 100 µM
TGI (HOP-18 NSCLC): > 100 µM
TGI (OVCAR-4 ovarian): > 100 µM
TGI (UACC-62 melanoma): > 100 µM
TGI (DMS 273 small cell lung): > 100 µM
TGI (SW-620 colon): > 100 µM
TGI (A498 renal): > 100 µM
TGI (OVCAR-8 ovarian): > 100 µM
TGI (DMS 114 small cell lung): > 100 µM
TGI (RPMI-8226 leukemia): > 100 µM
TGI (KM12 colon): > 100 µM
TGI (HCT-116 colon): > 100 µM
TGI (SK-MEL-2 melanoma): > 100 µM
TGI (SK-MEL-5 melanoma): > 100 µM
TGI (KM20L2 colon): > 100 µM
TGI (CAKI-1 renal): > 100 µM
TGI (SNB-19 CNS): > 100 µM
TGI (SK-MEL-28 melanoma): > 100 µM
TGI (LXFL 529 NSCLC): > 100 µM
TGI (SN12C renal): > 100 µM
TGI (CCRF-CEM leukemia): > 100 µM
TGI (NCI-H226 lung): > 100 µM
TGI (A549 NSCLC): > 100 µM
TGI (K-562 leukemia): > 100 µM
TGI (ACHN renal): > 100 µM
TGI (HT29 colon): > 100 µM
TGI (MALME-3M melanoma): > 100 µM
TGI (IGROV1 ovarian): > 100 µM
TGI (UO-31 renal): > 100 µM
TGI (HCT-15 colon): > 100 µM
TGI (M14 melanoma): > 100 µM
TGI (LOX IMVI melanoma): > 100 µM
TGI (SNB-78 CNS): > 100 µM
TGI (NCI-H522 lung): > 100 µM
TGI (SF-268 CNS): > 100 µM
TGI (SF-295 CNS): > 100 µM
TGI (HOP-62 NSCLC): > 100 µM
TGI (M19-MEL melanoma): > 100 µM
TGI (SNB-75 CNS): > 100 µM
TGI (OVCAR-3 ovarian): > 100 µM
TGI (NCI-H460 lung): > 100 µM
TGI (UACC-257 melanoma): > 100 µM
TGI (786-0 renal): > 100 µM
TGI (U251 CNS): > 100 µM
TGI (SK-OV-3 ovarian): > 100 µM
TGI (HL-60(TB) leukemia): > 100 µM
TGI (COLO 205 colon): > 100 µM
TGI (EKVX NSCLC): > 100 µM
TGI (HCC-2998 colon): > 100 µM

COC(C)(C)[C@@H](O)[C@H]1C[C@H](C)[C@@]2(CC[C@]3(C)[C@@H]2CC[C@@H]2[C@@]4(C)CC[C@@H](OC(C)=O)C(C)(C)[C@@H]4C[C@@H](OC4OC(COC(C)=O)C(O)C(O)C4O)[C@]23C)O1 (stereo partly drawn)
TGI (RXF 393 renal): 11.8 µM
TGI (MOLT-4 leukemia): 10.7 µM
TGI (OVCAR-5 ovarian): 7.18 µM
TGI (OVCAR-4 ovarian): 14.4 µM
TGI (UACC-62 melanoma): 18.6 µM
TGI (SW-620 colon): 20.2 µM
TGI (A498 renal): 14.4 µM
TGI (OVCAR-8 ovarian): 18.7 µM
TGI (RPMI-8226 leukemia): 5.7 µM
TGI (KM12 colon): 3.62 µM
TGI (HCT-116 colon): 11.5 µM
TGI (SK-MEL-2 melanoma): 19.7 µM
TGI (SK-MEL-5 melanoma): 15.1 µM
TGI (MCF7 breast): 8.92 µM
TGI (CAKI-1 renal): 24.1 µM
TGI (SNB-19 CNS): 21.3 µM
TGI (HOP-92 NSCLC): 17.6 µM
TGI (SK-MEL-28 melanoma): 20.4 µM
TGI (T-47D breast): 15.1 µM
TGI (SN12C renal): 19.4 µM
TGI (CCRF-CEM leukemia): > 37 µM
TGI (SF-539 CNS): 22.1 µM
TGI (NCI-H226 lung): 17.5 µM
TGI (BT-549 breast): 15.2 µM
TGI (A549 NSCLC): 15.3 µM
TGI (K-562 leukemia): 21.3 µM
TGI (ACHN renal): 18.3 µM
TGI (MDA-MB-435): 12.3 µM
TGI (HT29 colon): 4.07 µM
TGI (MALME-3M melanoma): 23.4 µM
TGI (HS 578T breast): 23.7 µM
TGI (SR leukemia): 5.25 µM
TGI (IGROV1 ovarian): 16.6 µM
TGI (UO-31 renal): 15.5 µM
TGI (HCT-15 colon): 5.75 µM
TGI (M14 melanoma): 16.5 µM
TGI (LOX IMVI melanoma): 14.9 µM
TGI (NCI-H522 lung): 17.4 µM
TGI (TK-10 renal): 24.6 µM
TGI (SF-268 CNS): 18.6 µM
TGI (SF-295 CNS): 16.5 µM
TGI (HOP-62 NSCLC): 25 µM
TGI (NCI-H23 lung): 25.8 µM
TGI (MDA-MB-231 breast): 24.9 µM
TGI (DU-145 prostate): 15.7 µM
TGI (SNB-75 CNS): 16.5 µM
TGI (OVCAR-3 ovarian): 15.3 µM
TGI (PC-3 prostate): 8.1 µM
TGI (NCI-H460 lung): 15.6 µM
TGI (UACC-257 melanoma): 20.9 µM
TGI (786-0 renal): 18.7 µM
TGI (MDA-N): 17.9 µM
TGI (NCI/ADR-RES ovarian): 22.5 µM
TGI (U251 CNS): 18.5 µM
TGI (SK-OV-3 ovarian): 15.1 µM
TGI (HL-60(TB) leukemia): 4.63 µM
TGI (COLO 205 colon): 6.18 µM
TGI (EKVX NSCLC): 19.5 µM
TGI (HCC-2998 colon): 2.92 µM
